Reference: the supplement of paper PMC11061612

How the values were obtained:
[1] = tested on: G-402 (Other Solid Carcinomas); assay: combination Emax (second highest fraction inhibited in the dose matrix, 72 h); higher = more inhibition; extreme values may be limits of the assay
In short: (§1)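 Cell lines in DMEM/F12 or RPMI with 10% FBS were plated in 1536-well plates, held 24 hours at 37°C, 5% CO2, then given two-drug dose matrices for 72 hours (DMSO typically 0.2%). Viability was read by CellTiter-Glo 2.0 luminescence and scaled as inhibition from 0 (vehicle wells) to 1 (blank wells). Combination Emax is the second-highest inhibition in the matrix; Bliss excess is observed combination effect minus expected EA + EB − EA·EB, EA and EB being single-agent effects.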

[2] = tested on: OACp4C (Esophageal Adenocarcinoma); assay: as above
In short: as §1

[3] = tested on: huH-1 (Hepatocellular Carcinoma); assay: as above
In short: as §1

[4] = tested on: 22RV1 (Prostate Carcinoma); assay: as above
In short: as §1

[5] = tested on: JHH-2 (Hepatocellular Carcinoma); assay: as above
In short: as §1

HCC70 (Breast Carcinoma) = assay: as above
In short: as §1

[6] = tested on: LS-411N (Colorectal Carcinoma); assay: as above
In short: as §1

[7] = tested on: ESO26 (Esophageal Adenocarcinoma); assay: as above
In short: as §1

[8] = tested on: HT55 (Colorectal Carcinoma); assay: as above
In short: as §1

NB13 (Neuroblastoma) = assay: as above
In short: as §1

EW-7 (Ewing's Sarcoma) = assay: as above
In short: as §1

[9] = tested on: MDA-MB-436 (Breast Carcinoma); assay: as above
In short: as §1

[10] = tested on: JHU-022 (Oral Cavity Carcinoma); assay: as above
In short: as §1

[11] = tested on: JIMT-1 (Breast Carcinoma); assay: Bliss excess, mean over the matrix (fraction); higher = more synergy
In short: as §1

EW-16 (Ewing's Sarcoma) = assay: as above
In short: as §1

A204 (Rhabdomyosarcoma) = assay: combination Emax (second highest fraction inhibited in the dose matrix, 72 h); higher = more inhibition; extreme values may be limits of the assay
In short: as §1

5637 (Bladder Carcinoma) [12] = assay: as above
In short: as §1

[13] = tested on: GA-10 (Burkitt's Lymphoma); assay: Bliss excess, mean over the matrix (fraction); higher = more synergy
In short: as §1

[14] = tested on: KYSE-140 (Esophageal Squamous Cell Carcinoma); assay: as above
In short: as §1

5637 (Bladder Carcinoma) [15] = assay: as above
In short: as §1
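For Bliss excess, mean over the matrix in this document: after 72 h of two-drug dosing.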

SMILES	combination Emax [1]	combination Emax [2]	combination Emax [3]	combination Emax [4]	combination Emax [5]	combination Emax (HCC70 (Breast Carcinoma))	combination Emax [6]	combination Emax [7]	combination Emax [8]	combination Emax (NB13 (Neuroblastoma))	combination Emax (EW-7 (Ewing's Sarcoma))	combination Emax [9]	combination Emax [10]	Bliss excess [11]	Bliss excess (EW-16 (Ewing's Sarcoma))	combination Emax (A204 (Rhabdomyosarcoma))	combination Emax (5637 (Bladder Carcinoma) [12])	Bliss excess [13]	Bliss excess [14]	Bliss excess (5637 (Bladder Carcinoma) [15])
CCc1c2c(nc3ccc(O)cc13)-c1cc3c(c(=O)n1C2)COC(=O)[C@]3(O)CC [SN-38] + O=C(c1cc(Cc2n[nH]c(=O)c3ccccc23)ccc1F)N1CCN(C(=O)C2CC2)CC1 [Olaparib] (first compound max 0.3 µM, 7x7, partner max 10 µM)	0.829	0.637	0.794	0.697	0.618	0.455	0.304	0.764	0.489	0.832	0.908	0.546	0.764	0.035	0.076					
CN(C)CCCOc1ccc(-c2ccc3ncc4c(c3c2)n(C2CCOCC2)c(=O)n4C)cn1 [AZD0156] + C[C@@H]1COCCN1C2=NC(=NC(=C2)C3(CC3)[S@](=N)(=O)C)C4=C5C=CNC5=NC=C4 [AZD6738] (first compound max 1 µM, 7x7, partner max 10 µM)	0.534	0.724	0.821	0.524	0.597	0.829	0.808	0.414	0.514	0.906	0.935	0.23	0.525	0.0042	-0.0074	0.411	0.712	0.0921	0.0481	-0.0155
COc1nnc2ccc(N3CCC(c4ccc(OCCN5CCN(C)C(=O)[C@H]5C)cc4)CC3)nn12 [AZD5153] + C=CCn1c(=O)c2cnc(Nc3ccc(N4CCN(C)CC4)cc3)nc2n1-c1cccc(C(C)(C)O)n1 [AZD1775] (first compound max 1 µM, partner max 1 µM)	0.85	0.882	0.558	0.529	0.553	0.44	0.889	0.757	0.81	0.813	0.872	0.227	0.417	-0.0054	-0.037	0.471	0.944	-0.0367	-0.0161	-0.0321
NC1(C(=O)N[C@@H](CCO)c2ccc(Cl)cc2)CCN(c2ncnc3[nH]ccc23)CC1 [Capivasertib] + Cn1cnc2c(F)c(Nc3ccc(Br)cc3Cl)c(C(=O)NOCCO)cc21 [Selumetinib] (first compound max 10 µM, 7x7, partner max 10 µM)	0.513	0.987	0.464	0.625	0.674	0.908	0.786	0.523	0.767	0.369	0.682	0.388	0.576	0.0449	0.0097	0.498	0.395	-0.0442	-0.0003	-0.0187
CC1(C)CCC(CN2CCN(c3ccc(C(=O)NS(=O)(=O)c4ccc(NCC5CCOCC5)c([N+](=O)[O-])c4)c(Oc4cnc5[nH]ccc5c4)c3)CC2)=C(c2ccc(Cl)cc2)C1 [Venetoclax] + COc1cc(Nc2ncc3c(n2)-c2ccc(Cl)cc2C(c2c(F)cccc2OC)=NC3)ccc1C(=O)O [Alisertib] (first compound max 1 µM, 7x7, partner max 10 µM)	0.57	0.72	0.257	0.329	0.525	0.412	0.0718	0.198	0.347	0.932	0.932	0.246	0.382	-0.0247	0.0541	0.431	0.778	0.0181	0.0471	-0.0313
CN(C)CCCOc1ccc(-c2ccc3ncc4c(c3c2)n(C2CCOCC2)c(=O)n4C)cn1 [AZD0156] + O=C(c1cc(Cc2n[nH]c(=O)c3ccccc23)ccc1F)N1CCN(C(=O)C2CC2)CC1 [Olaparib] (first compound max 3 µM, partner max 3 µM)	0.41	0.406	0.174	0.483	0.319	0.359	0.349	0.206	0.209		0.524	0.205	0.62	-0.0233	0.0975	0.467	0.439	0.131	-0.0069	0.138
Cn1cnc2c(F)c(Nc3ccc(Br)cc3Cl)c(C(=O)NOCCO)cc21 [Selumetinib] + C=CCn1c(=O)c2cnc(Nc3ccc(N4CCN(C)CC4)cc3)nc2n1-c1cccc(C(C)(C)O)n1 [AZD1775] (first compound max 10 µM, partner max 1 µM)	0.483	0.909	0.48	0.406	0.536	0.562	0.794	0.678	0.792	0.794	0.806	0.311	0.529	-0.0606	-0.0214	0.276	0.85	-0.0321	-0.0514	-0.0306
Cc1c2c(nn1C)CSCc1cc(n(C)n1)CSc1cc(c3ccccc3c1)OCCCc1c(C(=O)O)n(C)c3c-2c(Cl)ccc13 [AZD5991] + C[C@@H]1COCCN1C2=NC(=NC(=C2)C3(CC3)[S@](=N)(=O)C)C4=C5C=CNC5=NC=C4 [AZD6738] (first compound max 1 µM, 7x7, partner max 10 µM)	0.995	0.851	0.623	0.71	0.703	0.967	0.772	0.544	0.503	0.952	0.998	0.334	0.492	0.0789	-0.0304	0.773	0.787	-0.018	0.0119	0.0305
C=CCn1c(=O)c2cnc(Nc3ccc(N4CCN(C)CC4)cc3)nc2n1-c1cccc(C(C)(C)O)n1 [AZD1775] + C1CN(CCC1(C(=O)N[C@@H](CCO)C2=CC=C(C=C2)Cl)N)C3=NC=NC4=C3C=CN4 [Capivasertib] (first compound max 3 µM, partner max 3 µM)	0.619	0.889	0.666	0.616	0.625	0.754	0.878	0.707	0.831		0.896	0.41	0.71	0.0069	-0.0481	0.529	0.957	0.0431	-0.0859	0.0064
CC(=O)c1c(C)c2cnc(Nc3ccc(N4CCNCC4)cn3)nc2n(C2CCCC2)c1=O [Palbociclib] + CC1(C)CCC(CN2CCN(c3ccc(C(=O)NS(=O)(=O)c4ccc(NCC5CCOCC5)c([N+](=O)[O-])c4)c(Oc4cnc5[nH]ccc5c4)c3)CC2)=C(c2ccc(Cl)cc2)C1 [Venetoclax] (first compound max 10 µM, 7x7, partner max 1 µM)	0.442	0.217	0.119	0.382	0.357	0.0684	0.153	0.112	0.478	0.283	0.409	0.164	0.105	-0.0448	0.0564	0.308	0.231	-0.0895	-0.0285	-0.0149
CC1(C)CCC(CN2CCN(c3ccc(C(=O)NS(=O)(=O)c4ccc(NCC5CCOCC5)c([N+](=O)[O-])c4)c(Oc4cnc5[nH]ccc5c4)c3)CC2)=C(c2ccc(Cl)cc2)C1 [Venetoclax] + C=CCn1c(=O)c2cnc(Nc3ccc(N4CCN(C)CC4)cc3)nc2n1-c1cccc(C(C)(C)O)n1 [AZD1775] (first compound max 1 µM, partner max 1 µM)	0.435	0.897	0.501	0.513	0.882	0.805	0.55	0.682	0.664	0.928	0.974	0.231	0.388	-0.0568	-0.0504	0.325	0.861	-0.0553	-0.0037	-0.0414
NC1(C(=O)N[C@@H](CCO)c2ccc(Cl)cc2)CCN(c2ncnc3[nH]ccc23)CC1 [Capivasertib] + CCN(CCO)CCCOc1ccc2c(Nc3cc(CC(=O)Nc4cccc(F)c4)[nH]n3)ncnc2c1 [AZD2811] (first compound max 10 µM, 7x7, partner max 1 µM)	0.658	0.897	0.384	0.544	0.587	0.745	0.557	0.52	0.576	0.534	0.885	0.264	0.446	0.0154	-0.014	0.489	0.572	-0.111	-0.0096	-0.101
Cc1c2c(nn1C)CSCc1cc(n(C)n1)CSc1cc(c3ccccc3c1)OCCCc1c(C(=O)O)n(C)c3c-2c(Cl)ccc13 [AZD5991] + CN(C)CCCOc1ccc(-c2ccc3ncc4c(c3c2)n(C2CCOCC2)c(=O)n4C)cn1 [AZD0156] (first compound max 1 µM, 7x7, partner max 1 µM)	0.965	0.469	0.24	0.476		0.86	0.136	0.269	0.276	0.282	0.376	0.167	0.172	-0.0129	-0.0014	0.729	0.216	-0.0564	-0.0063	-0.0014
